Reference: paper PMC12586182 (Frontiers in Oncology, 2025)

Legend:
Assay in all cases: Kinase panel profiling at 1 µmol/L (mobility shift assay, Carna)
Format in all cases: biochemical
Settings in all cases: 1 µmol/L of BTK inhibitor
[1] = target: T1, EPHA8 (Homo sapiens, UniProt P29322)
T1 construct: purchased Carna Biosciences
T1 sequence (P29322 28-1005): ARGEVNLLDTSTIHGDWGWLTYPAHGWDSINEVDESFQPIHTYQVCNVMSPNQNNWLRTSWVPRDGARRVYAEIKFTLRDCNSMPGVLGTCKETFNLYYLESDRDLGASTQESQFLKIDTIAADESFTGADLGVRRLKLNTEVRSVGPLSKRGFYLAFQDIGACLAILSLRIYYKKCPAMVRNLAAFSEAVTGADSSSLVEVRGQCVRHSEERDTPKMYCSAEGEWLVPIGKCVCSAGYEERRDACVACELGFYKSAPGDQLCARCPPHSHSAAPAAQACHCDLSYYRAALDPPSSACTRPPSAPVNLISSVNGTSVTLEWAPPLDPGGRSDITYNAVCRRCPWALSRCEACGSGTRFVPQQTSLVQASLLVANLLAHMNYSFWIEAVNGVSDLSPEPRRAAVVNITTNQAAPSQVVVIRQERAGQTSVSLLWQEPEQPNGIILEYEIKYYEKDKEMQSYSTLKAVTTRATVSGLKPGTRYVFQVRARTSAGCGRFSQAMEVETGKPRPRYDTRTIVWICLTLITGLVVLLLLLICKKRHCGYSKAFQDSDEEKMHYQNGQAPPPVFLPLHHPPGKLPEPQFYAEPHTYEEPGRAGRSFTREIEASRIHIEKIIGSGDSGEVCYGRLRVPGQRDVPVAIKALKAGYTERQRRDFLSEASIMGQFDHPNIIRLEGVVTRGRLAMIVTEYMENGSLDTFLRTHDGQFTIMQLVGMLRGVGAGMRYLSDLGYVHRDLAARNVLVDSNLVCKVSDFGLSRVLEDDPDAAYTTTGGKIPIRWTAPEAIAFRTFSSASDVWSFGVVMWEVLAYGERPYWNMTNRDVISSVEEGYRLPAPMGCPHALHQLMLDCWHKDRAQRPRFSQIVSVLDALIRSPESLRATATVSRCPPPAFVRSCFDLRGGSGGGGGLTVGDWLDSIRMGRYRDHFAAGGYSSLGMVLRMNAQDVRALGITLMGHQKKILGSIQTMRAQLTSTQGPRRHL

[2] = target: T2, KIT (Homo sapiens, UniProt P10721)
T2 construct: purchased Carna Biosciences
T2 sequence (P10721 26-976): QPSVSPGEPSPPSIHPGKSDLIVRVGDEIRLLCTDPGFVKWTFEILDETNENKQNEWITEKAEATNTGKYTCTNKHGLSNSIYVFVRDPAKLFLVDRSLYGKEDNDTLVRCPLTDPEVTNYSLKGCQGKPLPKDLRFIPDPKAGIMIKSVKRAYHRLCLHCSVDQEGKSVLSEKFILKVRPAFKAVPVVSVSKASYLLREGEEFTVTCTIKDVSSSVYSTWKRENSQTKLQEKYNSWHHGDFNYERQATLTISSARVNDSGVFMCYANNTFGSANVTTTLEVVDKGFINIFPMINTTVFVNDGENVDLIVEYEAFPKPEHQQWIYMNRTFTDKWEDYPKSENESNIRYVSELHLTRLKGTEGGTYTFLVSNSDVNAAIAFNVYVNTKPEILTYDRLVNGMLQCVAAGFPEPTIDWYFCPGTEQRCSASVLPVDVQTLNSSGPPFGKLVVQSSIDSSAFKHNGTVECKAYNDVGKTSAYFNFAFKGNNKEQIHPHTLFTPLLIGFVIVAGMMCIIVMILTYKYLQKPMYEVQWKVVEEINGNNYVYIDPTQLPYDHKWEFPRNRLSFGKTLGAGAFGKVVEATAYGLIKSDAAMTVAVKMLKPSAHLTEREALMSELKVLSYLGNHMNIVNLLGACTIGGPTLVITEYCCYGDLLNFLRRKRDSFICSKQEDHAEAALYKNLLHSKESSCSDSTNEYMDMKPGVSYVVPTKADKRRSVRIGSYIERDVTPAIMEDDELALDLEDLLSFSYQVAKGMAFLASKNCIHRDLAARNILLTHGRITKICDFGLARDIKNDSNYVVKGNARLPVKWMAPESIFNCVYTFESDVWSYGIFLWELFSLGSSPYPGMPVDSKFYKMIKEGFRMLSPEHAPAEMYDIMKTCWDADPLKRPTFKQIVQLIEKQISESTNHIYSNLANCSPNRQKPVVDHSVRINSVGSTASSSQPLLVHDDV

[3] = target: T3, PKD3 (Homo sapiens, UniProt O94806)
T3 construct: purchased Carna Biosciences
T3 sequence (O94806 1-890): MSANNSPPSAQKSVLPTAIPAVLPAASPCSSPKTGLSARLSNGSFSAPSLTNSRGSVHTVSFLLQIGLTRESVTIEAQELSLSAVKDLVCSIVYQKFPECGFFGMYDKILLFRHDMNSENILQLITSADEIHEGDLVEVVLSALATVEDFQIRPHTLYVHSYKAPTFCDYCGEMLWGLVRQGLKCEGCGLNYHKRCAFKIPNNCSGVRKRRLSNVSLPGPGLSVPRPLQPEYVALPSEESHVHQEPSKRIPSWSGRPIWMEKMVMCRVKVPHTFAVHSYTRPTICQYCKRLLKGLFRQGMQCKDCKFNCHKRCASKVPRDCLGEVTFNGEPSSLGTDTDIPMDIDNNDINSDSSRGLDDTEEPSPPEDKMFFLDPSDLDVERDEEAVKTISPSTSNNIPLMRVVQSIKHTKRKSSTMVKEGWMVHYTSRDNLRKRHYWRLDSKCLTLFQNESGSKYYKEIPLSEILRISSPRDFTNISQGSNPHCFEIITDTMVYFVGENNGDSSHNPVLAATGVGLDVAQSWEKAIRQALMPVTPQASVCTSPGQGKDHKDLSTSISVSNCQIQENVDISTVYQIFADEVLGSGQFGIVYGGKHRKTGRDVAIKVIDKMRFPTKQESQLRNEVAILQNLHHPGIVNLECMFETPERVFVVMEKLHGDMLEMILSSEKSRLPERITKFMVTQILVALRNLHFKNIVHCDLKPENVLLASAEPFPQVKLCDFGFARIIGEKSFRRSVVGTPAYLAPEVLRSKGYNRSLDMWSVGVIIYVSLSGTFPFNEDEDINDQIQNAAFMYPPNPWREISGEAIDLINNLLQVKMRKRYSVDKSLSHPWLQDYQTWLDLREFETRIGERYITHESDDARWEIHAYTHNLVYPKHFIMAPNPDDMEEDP

[4] = target: T4, SPHK1 (Homo sapiens, UniProt Q9NYA1)
T4 construct: purchased Carna Biosciences
T4 sequence (Q9NYA1 whole entry): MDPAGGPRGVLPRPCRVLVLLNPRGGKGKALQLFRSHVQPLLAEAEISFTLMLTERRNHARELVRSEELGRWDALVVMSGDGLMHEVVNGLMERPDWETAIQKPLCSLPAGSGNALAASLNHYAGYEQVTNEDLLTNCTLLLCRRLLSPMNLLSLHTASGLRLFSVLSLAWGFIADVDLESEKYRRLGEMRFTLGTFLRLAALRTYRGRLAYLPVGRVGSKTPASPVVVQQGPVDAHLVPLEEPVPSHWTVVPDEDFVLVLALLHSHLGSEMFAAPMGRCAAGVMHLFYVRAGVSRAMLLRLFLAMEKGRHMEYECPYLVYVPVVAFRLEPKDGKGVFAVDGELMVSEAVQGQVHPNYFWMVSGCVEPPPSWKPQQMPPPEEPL

[5] = target: T5, LATS2 (Homo sapiens, UniProt Q9NRM7)
T5 construct: purchased Carna Biosciences
T5 sequence (Q9NRM7 1-1088): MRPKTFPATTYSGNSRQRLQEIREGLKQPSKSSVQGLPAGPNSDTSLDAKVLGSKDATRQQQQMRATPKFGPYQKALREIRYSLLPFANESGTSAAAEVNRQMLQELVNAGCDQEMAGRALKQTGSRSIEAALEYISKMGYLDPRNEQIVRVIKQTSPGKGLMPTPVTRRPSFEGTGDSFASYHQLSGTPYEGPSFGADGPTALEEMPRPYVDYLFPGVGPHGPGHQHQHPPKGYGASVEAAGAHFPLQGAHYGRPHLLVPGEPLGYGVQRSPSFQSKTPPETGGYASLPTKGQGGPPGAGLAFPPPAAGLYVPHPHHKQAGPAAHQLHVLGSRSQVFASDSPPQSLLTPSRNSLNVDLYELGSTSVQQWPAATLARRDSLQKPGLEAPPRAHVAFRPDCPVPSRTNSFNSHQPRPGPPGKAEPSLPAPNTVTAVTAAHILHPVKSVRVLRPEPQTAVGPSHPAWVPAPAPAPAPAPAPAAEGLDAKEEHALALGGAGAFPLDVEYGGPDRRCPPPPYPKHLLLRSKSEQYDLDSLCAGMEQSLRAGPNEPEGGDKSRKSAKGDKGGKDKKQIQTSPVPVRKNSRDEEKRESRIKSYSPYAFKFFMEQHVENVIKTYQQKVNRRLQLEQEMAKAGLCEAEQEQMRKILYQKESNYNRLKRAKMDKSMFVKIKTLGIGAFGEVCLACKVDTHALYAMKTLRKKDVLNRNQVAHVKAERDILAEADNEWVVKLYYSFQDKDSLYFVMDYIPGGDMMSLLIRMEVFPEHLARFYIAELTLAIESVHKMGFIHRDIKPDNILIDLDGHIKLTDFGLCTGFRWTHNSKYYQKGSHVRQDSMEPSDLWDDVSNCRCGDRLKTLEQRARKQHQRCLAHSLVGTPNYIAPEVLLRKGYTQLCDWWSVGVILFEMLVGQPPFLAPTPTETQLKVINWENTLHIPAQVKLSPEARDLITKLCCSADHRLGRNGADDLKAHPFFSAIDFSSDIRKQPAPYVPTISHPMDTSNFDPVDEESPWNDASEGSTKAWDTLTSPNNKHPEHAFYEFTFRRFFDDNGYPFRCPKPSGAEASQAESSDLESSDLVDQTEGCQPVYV

Row | SMILES | Percentage inhibition of kinase enzyme activity [1] [%] | Percentage inhibition of kinase enzyme activity [2] [%] | Percentage inhibition of kinase enzyme activity [3] [%] | Percentage inhibition of kinase enzyme activity [4] [%] | Percentage inhibition of kinase enzyme activity [5] [%]
1 | C=CC(=O)N1CCC([C@@H]2CCNc3c(C(N)=O)c(-c4ccc(Oc5ccccc5)cc4)nn32)CC1 [zanubrutinib] | -2.10 | -2.78 | – | – | –
2 | CC#CC(=O)N1CCC[C@H]1c1nc(-c2ccc(C(=O)Nc3ccccn3)cc2)c2c(N)nccn12 [acalabrutinib] | 6.51 | 2.89 | -2.07 | -3.15 | -7.45
3 | COc1ccc(F)cc1C(=O)NCc1ccc(-c2nn([C@@H](C)C(F)(F)F)c(N)c2C(N)=O)cc1 [pirtobrutinib] | -19.48 | -5.95 | 2.18 | -10.15 | 2.57
4 | O=C(c1ccc(Oc2ccccc2)cc1Cl)c1c[nH]c2ncnc(N[C@@H]3CC[C@@H](CO)OC3)c12 [nemtabrutinib] | 50.84 | 78.81 | 16.29 | -5.57 | 70.96
5 | C=CC(=O)N1CCC[C@@H](n2nc(-c3ccc(Oc4ccccc4)cc3)c3c(N)ncnc32)C1 [ibrutinib] | 54.68 | -4.53 | 5.48 | -3.38 | 5.45
